Measured values as given in patent US20250017907A1, “METHOD FOR PREVENTING AND/OR TREATING LIVER FIBROSIS BY USING 6-METHOXYBENZOXAZOLINONE AND COIX LACHRYMA-JOBI L. EXTRACT COMPRISING 6-METHOXYBENZOXAZOLINONE” (Taichung District Agricultural Research and Extension …, priority 2023, published 2025).

Assays:
[1] = tested on: TAA-induced liver fibrotic C57BL/6J mice; assay: Hydroxyproline assay of liver tissue; type: in vivo; conditions: CX groups (20 and 50 mg/kg oral, 6 weeks); vs TAA group
Procedure: For tests of adlay extracts, mice were randomly divided into the following seven groups (n=6, per group): (1) No treatment group (NT, normal diet), (2) Thioacetamide group (TAA, 200 mg/kg, normal diet), (3) 10% adlay seed powder (ASP) group, (4) 1% adlay leaf powder (ALP) group, (5) 1% adlay seed polysaccharide (ASPS) group, (6) 0.025% adlay seed ethanolic extract (ASE) group and (7) 0.1% ASE group. NT group received pure saline, and other groups intraperitoneally injected with TAA dissolved into saline thrice a week.
For tests of CX, mice were randomly divided into the following four groups (n=8, per group): (1) NT group, (2) TAA group (200 mg/kg), (3) CX group (CX20, 20 mg/kg), and (4) CX group (CX50, 50 mg/kg). NT group received pure saline, and other groups intraperitoneally injected with TAA dissolved into saline thrice a week. Moreover, NT group and TAA group also received 5% propylene glycol, while CX groups received CX dissolved into 5% propylene glycol (prepared in 0.9% saline) by oral gavage once per day. […]
The procedure of hydroxyproline assay is as follows. The hydroxyproline, as an indirect index of the collagen content in the liver, was determined by a hydroxyproline assay kit and the testing procedures followed the manufacturer's protocol. […] The hydroxyproline content was measured at a wavelength of 558 nm on an ELISA reader (TECAN, Switzerland). […]

[2] = tested on: TGF-β1-activated HSC-T6 cells; assay: Western blot of fibrotic and EMT-related proteins; type: cell-based, rat; conditions: HSC-T6, TGF-β1 10 ng/mL, 24 h
Procedure: (§1) The procedure of cell cultures is as follows. HSC-T6 cell is an immortalized cell line isolated from transformed SV40 large T-antigen transformed primary stellate cells of male Sprague-Dawley rats. HSC-T6 cells were maintained in Dulbecco's Modified Eagle Medium (DMEM, Sigma-Aldrich, USA) containing 8% fetal bovine serum (FBS, HyClone, USA), 100 U/mL of penicillin, and 100 μg/mL of streptomycin (Gibco, USA).
(§2) For hepatic stellate cell (HSC) activation, cells were cultured for 24 h and then replaced with serum-free medium for 24 h, after that, treated with transforming growth factor beta 1 (TGF-β1) (10 ng/mL) in the presence or absence of CX (10-100 μM) or adlay leaf, root, and seed extracts (25 and 50 μg/mL) for 24 h, or 30 min for intracellular signal pathways.
(§3) The procedure of Western blot analysis is as follows. Cells were lysed in RIPA buffer with protease inhibitor and then centrifuged at 4° C., 12000 rpm for 10 min. Collected the supernatant and quantified the total protein concentration to 50 μg. After heating at 95° C. for 10 min, the protein samples were separated by SDS-PAGE gel, transferred to PVDF membrane, followed by blocking with 6% milk, incubated with primary antibodies at 4° C., overnight and secondary antibodies at room temperature for 1 h. Blot images were visualized on Amersham Imager 680 (Cytiva, USA) with ECL agent (GeneDireX, USA).

[3] = tested on: PI3K and ERK signaling pathway; assay: Western blot of PI3K and ERK signaling pathway; type: cell-based, rat; conditions: TGF-β1-activated HSC-T6 cells, CX
Procedure: as §1, §2, §3

[4] = tested on: HSC-T6 cells; assay: MTT cell viability assay; type: cell-based, rat; conditions: 0-800 μM, 24 h
Procedure: as §1
The procedure of cell viability assay is as follows. HSC-T6 cells were seed at 1.5×10^4 in 96-well plates and were incubated with CX (0-800 μM) or adlay extracts (0-800 μg/mL) for 24 h. Followed by the determination of cell viability with MTT [3-(4,5-Dimethyl-2-thiazolyl)-2,5-diphenyl-2H-tetrazolium bromide] (Sigma-Aldrich, USA). Briefly, MTT was added to each well at a final concentration of […] and was incubated at 37° C. for 1 h. Next, removed the MTT and added the DMSO to dissolve MTT-formazan crystals formed by metabolically viable cells. Finally, the absorbance of each well was detected by a spectrophotometer at the wavelength of 570 nm.

[5] = tested on: TGF-β/SMAD signaling pathway; assay: Western blot of TGF-β/SMAD signaling pathway proteins; type: cell-based, rat; conditions: HSC-T6, TGF-β1 10 ng/mL, CX 10-100 μM
Procedure: as §1, §2, §3

## COc1ccc2[nH]c(=O)oc2c1 [CX, 6-methoxybenzoxazolinone]
[1]
  liver hydroxyproline content: significantly lower
[2]; CX 10-100 μM
  TGF-β1-induced COL1A1 expression (Western blot): reduced
  TGF-β1-induced fibronectin expression (Western blot): reduced
  TGF-β1-induced α-SMA expression (Western blot): reduced
[2]; CX even at the lowest dose (10 μM)
  E-cadherin expression (Western blot): significantly enhanced
[3]
  phosphorylation of ERK (p-ERK1/2, Western blot): did not cause significant changes
  phosphorylation of PI3K (p-PI3K, Western blot): did not cause significant changes
[4]
  dose with no significant effects on cell viability: below 400 μM
[5]
  NOX4 expression (Western blot): decreased
  SNAIL1/2 expression (Western blot): decreased
  TWIST1/2 expression (Western blot): decreased
  ZEB1 expression (Western blot): decreased
[5]; 30 min
  TGF-β1-stimulated SMAD2 phosphorylation (p-SMAD2, Western blot): decreased with increasing dose
  TGF-β1-stimulated SMAD3 phosphorylation (p-SMAD3, Western blot): decreased with increasing dose
